Results taken from ChEMBL document CHEMBL5584256, “Bromine/Sulfur-Substituted 9H-Carbazoles Produced by the Marine-Derived Streptomyces sp. OUCMDZ-5511 upon NaBr Exposure” (J Nat Prod, 2024).
Calls of active or inactive are those of the source. The rule behind the calls is not given here.

Assays:
Danio rerio [1] = species on record: Danio rerio; test: Anti-inflammatory activity in transgenic zebrafish harboring Tg (zlyz:EGFP) assessed as increase in CuSO4-reduced PPAR-gamma mRNA level at 5 to 15 uM preincubated for 2 hrs followed by CuSO4 treatment for 45 mins […]; assay type: functional, organism-based; settings: dose 5-15 µM, time 165.0 min
Danio rerio [2] = species on record: Danio rerio; test: Anti-inflammatory activity in transgenic zebrafish harboring Tg (zlyz:EGFP) assessed as reduction in CuSO4-induced IKK-beta mRNA level at 5 to 15 uM preincubated for 2 hrs followed by CuSO4 treatment for 45 mins […]; assay type: functional, organism-based; settings: dose 5-15 µM, time 165.0 min
Danio rerio [3] = species on record: Danio rerio; test: Anti-inflammatory activity in transgenic zebrafish harboring Tg (zlyz:EGFP) assessed as reduction in CuSO4-induced IL-8 mRNA level at 5 to 15 uM preincubated for 2 hrs followed by CuSO4 treatment for 45 mins […]; assay type: functional, organism-based; settings: dose 5-15 µM, time 165.0 min
Danio rerio [4] = species on record: Danio rerio; test: Anti-inflammatory activity in transgenic zebrafish harboring Tg (zlyz:EGFP) assessed as reduction in CuSO4-induced immune cell migration at 10 uM preincubated for 2 hrs followed by CuSO4 treatment for 45 mins by fluorescence microscopy; assay type: functional, organism-based; settings: time 165.0 min
Danio rerio [5] = species on record: Danio rerio; test: Anti-inflammatory activity in transgenic zebrafish harboring Tg (zlyz:EGFP) assessed as reduction in CuSO4-induced IRAK1 mRNA level at 5 to 15 uM preincubated for 2 hrs followed by CuSO4 treatment for 45 mins […]; assay type: functional, organism-based; settings: dose 5-15 µM, time 165.0 min
Danio rerio [6] = species on record: Danio rerio; test: Anti-inflammatory activity in transgenic zebrafish harboring Tg (zlyz:EGFP) assessed as reduction in CuSO4-induced AP-1 mRNA level at 5 to 15 uM preincubated for 2 hrs followed by CuSO4 treatment for 45 mins […]; assay type: functional, organism-based; settings: dose 5-15 µM, time 165.0 min
Danio rerio [7] = species on record: Danio rerio; test: Anti-inflammatory activity in transgenic zebrafish harboring Tg (zlyz:EGFP) assessed as reduction in CuSO4-induced immune cell migration at 5 to 15 uM preincubated for 2 hrs followed by CuSO4 treatment for 45 mins by fluorescence microscopy; assay type: functional, organism-based; settings: dose 5-15 µM, time 165.0 min
[8] = Toxicity in transgenic zebrafish harboring Tg (zlyz:EGFP) preincubated for 2 hrs followed by CuSO4 treatment for 45 mins; design: species or system Danio rerio; settings: in vivo, time 165 min
Danio rerio [9] = species on record: Danio rerio; test: Anti-inflammatory activity in transgenic zebrafish harboring Tg (zlyz:EGFP) assessed as reduction in CuSO4-induced IRAK4 mRNA level at 5 to 15 uM preincubated for 2 hrs followed by CuSO4 treatment for 45 mins […]; assay type: functional, organism-based; settings: dose 5-15 µM, time 165.0 min
Danio rerio [10] = species on record: Danio rerio; test: Anti-inflammatory activity in transgenic zebrafish harboring Tg (zlyz:EGFP) assessed as reduction in CuSO4-induced TGF-beta mRNA level at 5 to 15 uM preincubated for 2 hrs followed by CuSO4 treatment for 45 mins […]; assay type: functional, organism-based; settings: dose 5-15 µM, time 165.0 min
Danio rerio [11] = species on record: Danio rerio; test: Anti-inflammatory activity in transgenic zebrafish harboring Tg (zlyz:EGFP) assessed as reduction in CuSO4-induced NF-kappa-b mRNA level at 5 to 15 uM preincubated for 2 hrs followed by CuSO4 treatment for 45 mins […]; assay type: functional, organism-based; settings: dose 5-15 µM, time 165.0 min
Danio rerio [12] = species on record: Danio rerio; test: Anti-inflammatory activity in transgenic zebrafish harboring Tg (zlyz:EGFP) assessed as reduction in CuSO4-induced MYD88 mRNA level at 5 to 15 uM preincubated for 2 hrs followed by CuSO4 treatment for 45 mins […]; assay type: functional, organism-based; settings: dose 5-15 µM, time 165.0 min
Danio rerio [13] = species on record: Danio rerio; test: Anti-inflammatory activity in transgenic zebrafish harboring Tg (zlyz:EGFP) assessed as reduction in CuSO4-induced MAP3K7 mRNA level at 5 to 15 uM preincubated for 2 hrs followed by CuSO4 treatment for 45 mins […]; assay type: functional, organism-based; settings: dose 5-15 µM, time 165.0 min
Danio rerio [14] = species on record: Danio rerio; test: Anti-inflammatory activity in transgenic zebrafish harboring Tg (zlyz:EGFP) assessed as reduction in CuSO4-induced I-kappa-b-alpha mRNA level at 5 to 15 uM preincubated for 2 hrs followed by CuSO4 treatment for 45 mins […]; assay type: functional, organism-based; settings: dose 5-15 µM, time 165.0 min
Danio rerio [15] = species on record: Danio rerio; test: Anti-inflammatory activity in transgenic zebrafish harboring Tg (zlyz:EGFP) assessed as reduction in CuSO4-induced p38 mRNA level at 5 to 15 uM preincubated for 2 hrs followed by CuSO4 treatment for 45 mins […]; assay type: functional, organism-based; settings: dose 5-15 µM, time 165.0 min
Danio rerio [16] = species on record: Danio rerio; test: Anti-inflammatory activity in transgenic zebrafish harboring Tg (zlyz:EGFP) assessed as reduction in CuSO4-induced TRAF6 mRNA level at 5 to 15 uM preincubated for 2 hrs followed by CuSO4 treatment for 45 mins […]; assay type: functional, organism-based; settings: dose 5-15 µM, time 165.0 min

SMILES: COc1ccc2[nH]c3c(O)cccc3c2c1Br
- Activity (Danio rerio [1]): Active
- Activity (Danio rerio [2]): Active
- Activity (Danio rerio [3]): Active
- Activity (Danio rerio [4]): Active
- Activity (Danio rerio [5]): Active
- Activity (Danio rerio [6]): Active
- Activity (Danio rerio [7]): Active
- LC50 at 0.75 h [8]: 68 µM
- Activity (Danio rerio [9]): Active
- Activity (Danio rerio [10]): Active
- Activity (Danio rerio [11]): Active
- Activity (Danio rerio [12]): Active
- Activity (Danio rerio [13]): Active
- Activity (Danio rerio [14]): Active
- Activity (Danio rerio [15]): Active
- Activity (Danio rerio [16]): Active

SMILES: COc1ccc2[nH]c3c(ccc4scnc43)c2c1Br
- Activity (Danio rerio [4]): Active
